Test results from the supplement of paper PMC13380429.

Legend:
Details in all cases: 72 h
Vero E6 [1] = test: cell viability relative to DMSO; higher = less toxic
U2OS [2] = test: as above
Calu-3 [3] = test: as above
Caco-2 [4] = test: as above
HepG2 [5] = test: as above
Vero E6 [6] = test: relative viability EC50 (midpoint between 100% and the lowest measured viability); higher = less toxic
U2OS [7] = test: as above
Calu-3 [8] = test: as above
Caco-2 [9] = test: as above
HepG2 [10] = test: as above
Vero E6 [11] = test: drug sensitivity score (DSS) for viability; higher = more toxic; extreme values may be limits of the assay
U2OS [12] = test: as above
Calu-3 [13] = test: as above
Caco-2 [14] = test: as above
HepG2 [15] = test: as above

Compound	cell viability (Vero E6 [1]; 1 nM)	cell viability (Vero E6 [1]; 10 nM)	cell viability (Vero E6 [1]; 100 nM)	cell viability (Vero E6 [1]; 1000 nM)	cell viability (Vero E6 [1]; 10000 nM)	cell viability (U2OS [2]; 1 nM)	cell viability (U2OS [2]; 10 nM)	cell viability (U2OS [2]; 100 nM)	cell viability (U2OS [2]; 1000 nM)	cell viability (U2OS [2]; 10000 nM)	cell viability (Calu-3 [3]; 1 nM)	cell viability (Calu-3 [3]; 10 nM)	cell viability (Calu-3 [3]; 100 nM)	cell viability (Calu-3 [3]; 1000 nM)	cell viability (Calu-3 [3]; 10000 nM)	cell viability (Caco-2 [4]; 1 nM)	cell viability (Caco-2 [4]; 10 nM)	cell viability (Caco-2 [4]; 100 nM)	cell viability (Caco-2 [4]; 1000 nM)	cell viability (Caco-2 [4]; 10000 nM)	cell viability (HepG2 [5]; 1 nM)	cell viability (HepG2 [5]; 10 nM)	cell viability (HepG2 [5]; 100 nM)	cell viability (HepG2 [5]; 1000 nM)	cell viability (HepG2 [5]; 10000 nM)	relative viability EC50 (Vero E6 [6])	relative viability EC50 (U2OS [7])	relative viability EC50 (Calu-3 [8])	relative viability EC50 (Caco-2 [9])	relative viability EC50 (HepG2 [10])	drug sensitivity score (Vero E6 [11])	drug sensitivity score (U2OS [12])	drug sensitivity score (Calu-3 [13])	drug sensitivity score (Caco-2 [14])	drug sensitivity score (HepG2 [15])
NS(=O)(=O)c1cc(C2(O)NC(=O)c3ccccc32)ccc1Cl (stereo not given) [chlorthalidone]	97.4%	102%	98.8%	103%	97.3%	98.4%	97.4%	97.3%	96.8%	102%	96.7%	92%	107%	86.6%	97.4%	107%	84.5%	96.8%	98.6%	99%	97.5%	106%	97.7%	107%	99.6%	> 10 µM	> 10 µM	> 10 µM	> 10 µM	> 10 µM	0	0	0	0	0
Cc1cc(O)c2c(c1)C(=O)c1cccc(O)c1C2=O [chrysophanic-acid]	93.5%	97.3%	100%	93.5%	96.1%	99.5%	103%	96.7%	104%	97.7%	104%	98.1%	92.4%	91.2%	93%	102%	91.2%	92%	92.5%	88.9%	98.4%	104%	97.8%	95.7%	105%	> 10 µM	> 10 µM	> 10 µM	> 10 µM	> 10 µM	0	0	0	0.8	0
Nc1ncnc2c1ncn2[C@@H]1O[C@H](CO)C[C@H]1O [cordycepin]	96.6%	97%	96.2%	98.1%	103%	95.7%	99.3%	95%	105%	110%	94.6%	98.6%	86.1%	92.5%	101%	93.9%	99%	95.2%	97.5%	103%	95.3%	98.9%	104%	97.4%	114%	> 10 µM	> 10 µM	> 10 µM	> 10 µM	> 10 µM	0	0	0	0	0
COc1ccc(CCN2CCN(CCCc3ccccc3)CC2)cc1OC [cutamesine]	102%	92.5%	102%	96.2%	95.6%	106%	100%	104%	93.5%	96.8%	95.9%	110%	102%	119%	96.8%	97.9%	95.6%	96%	92.9%	98%	91.5%	97.2%	88.9%	98.4%	85%	> 10 µM	> 10 µM	> 10 µM	> 10 µM	> 10 µM	0	0	0	0	0
Cc1c(O)c(=O)ccn1C [deferiprone]	101%	102%	99.3%	98.1%	99.9%	96.5%	100%	100%	94.5%	96.2%	89.6%	106%	109%	100%	98.2%	92.4%	98.3%	93.4%	116%	93.4%	103%	97.4%	98.3%	97.1%	101%	> 10 µM	> 10 µM	> 10 µM	> 10 µM	> 10 µM	0	0	0	0	0
CN(C)[C@@H]1C(O)=C(C(N)=O)C(=O)[C@@]2(O)C(O)=C3C(=O)c4c(O)ccc(Cl)c4[C@@H](O)[C@H]3C[C@@H]12 [demeclocycline]	98.1%	103%	110%	99.6%	91%	105%	98%	101%	96.3%	93.8%	112%	115%	102%	98.9%	93.4%	99.9%	95.9%	101%	95.5%	96.3%	89.5%	97.6%	97.3%	102%	94.9%	> 10 µM	> 10 µM	> 10 µM	> 10 µM	> 10 µM	0	0	0	0	0
CNCCc1ccc(O)c(O)c1 [deoxyepinephrine]	107%	99.6%	100%	101%	103%	95%	97%	94.3%	101%	95.5%	94.5%	104%	95.8%	91.6%	98.1%	95.5%	95.8%	106%	102%	89.6%	97.5%	97.2%	108%	91.8%	96.7%	> 10 µM	> 10 µM	> 10 µM	> 10 µM	> 10 µM	0	0	0	0	0
CNCCCN1c2ccccc2CCc2ccccc21 [desipramine]	107%	103%	97%	102%	99.9%	104%	102%	104%	98.1%	97.1%	104%	101%	104%	109%	96.2%	98.9%	111%	102%	94.3%	90.6%	119%	114%	105%	113%	89%	> 10 µM	> 10 µM	> 10 µM	> 10 µM	> 10 µM	0	0	0	0	0
C[C@]12CC[C@H]3[C@@H](CCC4=CC(=O)CC[C@@]43C)[C@@H]1CC[C@@H]2C(=O)CO [desoxycortone]	101%	99.2%	93.6%	95.8%	101%	103%	99.2%	97.1%	97.6%	95.4%	98.5%	95.1%	91.5%	105%	95.8%	100%	101%	102%	97%	87.4%	101%	95.8%	97%	87.1%	104%	> 10 µM	> 10 µM	> 10 µM	> 10 µM	> 10 µM	0	0	0	0.2	0
c1ccc2c(c1)CN1CCCC1=N2 [desoxypeganine]	98.4%	96.5%	105%	98%	95.2%	98.7%	101%	93%	94.5%	99.3%	95.1%	111%	99.6%	89.2%	107%	97.6%	113%	105%	94.7%	97.9%	89.7%	75.1%	91.6%	91.1%	96.8%	> 10 µM	> 10 µM	> 10 µM	> 10 µM	> 10 µM	0	0	0	0	0
c1ccc2c(c1)sc1ccccc12 [dibenzothiophene]	100%	96.6%	99%	98.5%	98.8%	105%	101%	104%	96.7%	104%	99.4%	103%	92.1%	96.1%	101%	101%	98.7%	99.9%	91.1%	99.8%	102%	96.8%	104%	106%	101%	> 10 µM	> 10 µM	> 10 µM	> 10 µM	> 10 µM	0	0	0	0	0
CN1CCN(c2cc3c(cc2F)c(=O)c(C(=O)O)cn3-c2ccc(F)cc2)CC1 [difloxacin]	109%	101%	96.7%	106%	99.1%	92%	95.4%	98.9%	99.1%	104%	105%	90.1%	95.2%	98.6%	108%	92.5%	95.1%	102%	94.7%	91.1%	93.6%	110%	105%	103%	93.7%	> 10 µM	> 10 µM	> 10 µM	> 10 µM	> 10 µM	0	0	0	0	0
O=C(O)CCc1cc(I)c(Oc2ccc(O)cc2)c(I)c1 [diiodothyropropionic-acid]	105%	103%	104%	87.1%	92.1%	96.2%	99.1%	95.8%	98.4%	96.6%	96.8%	101%	94.5%	99.6%	93.6%	113%	124%	94.4%	113%	109%	104%	95%	113%	103%	99.8%	> 10 µM	> 10 µM	> 10 µM	> 10 µM	> 10 µM	0.7	0	0	0	0
